# Measurements as given in ChEMBL document CHEMBL4177586, “Small molecule adjuvants that suppress both chromosomal and mcr-1 encoded colistin-resistance and amplify colistin efficacy in polymyxin-susceptible bacteria” (Bioorg Med Chem, 2017).
# Active and inactive are the calls of the source. The calls are words filed in the database; no cut-off is given here.
# Key:
# [1] = test system: Escherichia coli; experiment: Toxicity against Escherichia coli YD626 expressing mcr1 gene incubated for overnight duration by CLSI based method; format: organism-based; conditions: in vivo
# [2] = test system: Escherichia coli; experiment: Potentiation of colistin-induced antimicrobial activity against Escherichia coli YD626 expressing mcr1 gene assessed as reduction in colistin MIC at 30 uM incubated for overnight duration by CLSI based method relative to colistin alone control; format: functional
# [3] = test system: Klebsiella pneumoniae; experiment: Potentiation of colistin-induced antimicrobial activity against Klebsiella pneumoniae 2210291 assessed as colistin MIC at 30 uM incubated for overnight duration by CLSI based method (reference value: 1 ug/ml); format: functional
# [4] = test system: Klebsiella pneumoniae; experiment: Toxicity against Klebsiella pneumoniae 2210291 expressing mcr1 gene incubated for overnight duration by CLSI based method; format: organism-based; conditions: in vivo
# [5] = test system: Acinetobacter baumannii; experiment: Potentiation of colistin-induced antimicrobial activity against Acinetobacter baumannii ATCC 17978 expressing mcr1 gene assessed as colistin MIC at 15 uM incubated for overnight duration by CLSI based method (reference value: 16 ug/ml); format: functional
# [6] = test system: Escherichia coli; experiment: Potentiation of colistin-induced antimicrobial activity against Escherichia coli ATCC 25922 expressing mcr1 gene assessed as reduction in colistin MIC at 15 uM incubated for overnight duration by CLSI based method relative to colistin alone control; format: functional
# [7] = test system: Acinetobacter baumannii; experiment: Toxicity against Acinetobacter baumannii SM1536 expressing mcr1 gene incubated for overnight duration by CLSI based method; format: organism-based; conditions: in vivo
# [8] = test system: Escherichia coli; experiment: Toxicity against Escherichia coli ATCC 25922 expressing mcr1 gene incubated for overnight duration by CLSI based method; format: organism-based; conditions: in vivo
# [9] = test system: Escherichia coli; experiment: Potentiation of colistin-induced antimicrobial activity against Escherichia coli ATCC 25922 assessed as reduction in colistin MIC at 30 uM incubated for overnight duration by CLSI based method relative to colistin alone control; format: functional
# [10] = test system: Acinetobacter baumannii; experiment: Toxicity against Acinetobacter baumannii ATCC 17978 expressing mcr1 gene incubated for overnight duration by CLSI based method; format: organism-based; conditions: in vivo
# [11] = test system: Acinetobacter baumannii; experiment: Potentiation of colistin-induced antimicrobial activity against Acinetobacter baumannii SM1536 assessed as colistin MIC at 30 uM incubated for overnight duration by CLSI based method (reference value: 2 ug/ml); format: functional
# [12] = test system: Acinetobacter baumannii; experiment: Reduction in lipid A modification in Acinetobacter baumannii ATCC 17978 at 30 uM incubated for 24 hrs by MALDI-TOF mass spectrometry; format: functional, organism-based
# [13] = test system: Klebsiella pneumoniae; experiment: Potentiation of colistin-induced antimicrobial activity against colistin-resistant Klebsiella pneumoniae C5 assessed as reduction in colistin MIC at 15 uM incubated for overnight duration by CLSI based method relative to colistin alone control; format: functional
# [14] = test system: Escherichia coli; experiment: Potentiation of colistin-induced antimicrobial activity against Escherichia coli YD626 expressing mcr1 gene assessed as colistin MIC at 60 uM incubated for overnight duration by CLSI based method (reference value: 4 ug/ml); format: functional
# [15] = test system: Klebsiella pneumoniae; experiment: Potentiation of colistin-induced antimicrobial activity against Klebsiella pneumoniae 2210291 expressing mcr1 gene assessed as reduction in colistin MIC at 60 uM incubated for overnight duration by CLSI based method relative to colistin alone control; format: functional
# [16] = test system: Escherichia coli; experiment: Potentiation of colistin-induced antimicrobial activity against Escherichia coli ATCC 25922 expressing mcr1 gene assessed as colistin MIC at 60 uM incubated for overnight duration by CLSI based method (reference value: 8 ug/ml); format: functional
# [17] = test system: Acinetobacter baumannii; experiment: Potentiation of colistin-induced antimicrobial activity against colistin-resistant Acinetobacter baumannii PM4112 assessed as colistin MIC at 60 uM incubated for overnight duration by CLSI based method (reference value: 1024 ug/ml); format: functional
# [18] = test system: Acinetobacter baumannii; experiment: Potentiation of colistin-induced antimicrobial activity against colistin-resistant Acinetobacter baumannii PM3941 assessed as colistin MIC at 60 uM incubated for overnight duration by CLSI based method (reference value: 512 ug/ml); format: functional
# [19] = test system: Acinetobacter baumannii; experiment: Potentiation of colistin-induced antimicrobial activity against colistin-resistant Acinetobacter baumannii PM3942 assessed as colistin MIC at 15 uM incubated for overnight duration by CLSI based method (reference value: 512 ug/ml); format: functional
# [20] = test system: Acinetobacter baumannii; experiment: Potentiation of colistin-induced antimicrobial activity against colistin-resistant Acinetobacter baumannii PM3942 assessed as reduction in colistin MIC at 15 uM incubated for overnight duration by CLSI based method relative to colistin alone control; format: functional
# [21] = test system: Escherichia coli; experiment: Potentiation of colistin-induced antimicrobial activity against Escherichia coli ATCC 25922 expressing mcr1 gene assessed as reduction in colistin MIC at 60 uM incubated for overnight duration by CLSI based method relative to colistin alone control; format: functional
# [22] = test system: Acinetobacter baumannii; experiment: Potentiation of colistin-induced antimicrobial activity against Acinetobacter baumannii ATCC 17978 expressing mcr1 gene assessed as colistin MIC at 60 uM incubated for overnight duration by CLSI based method (reference value: 16 ug/ml); format: functional
# [23] = test system: Klebsiella pneumoniae; experiment: Potentiation of colistin-induced antimicrobial activity against colistin-resistant Klebsiella pneumoniae C3 assessed as colistin MIC at 60 uM incubated for overnight duration by CLSI based method (reference value: 512 ug/ml); format: functional
# [24] = test system: Acinetobacter baumannii; experiment: Potentiation of colistin-induced antimicrobial activity against colistin-resistant Acinetobacter baumannii PM4119 assessed as colistin MIC at 30 uM incubated for overnight duration by CLSI based method (reference value: 1024 ug/ml); format: functional
# [25] = test system: Klebsiella pneumoniae; experiment: Potentiation of colistin-induced antimicrobial activity against colistin-resistant Klebsiella pneumoniae C3 assessed as colistin MIC at 30 uM incubated for overnight duration by CLSI based method (reference value: 512 ug/ml); format: functional
# [26] = test system: Acinetobacter baumannii; experiment: Potentiation of colistin-induced antimicrobial activity against colistin-resistant Acinetobacter baumannii PM3942 assessed as colistin MIC at 60 uM incubated for overnight duration by CLSI based method (reference value: 512 ug/ml); format: functional
# [27] = test system: Klebsiella pneumoniae; experiment: Potentiation of colistin-induced antimicrobial activity against colistin-resistant Klebsiella pneumoniae C3 assessed as colistin MIC at 15 uM incubated for overnight duration by CLSI based method (reference value: 512 ug/ml); format: functional
# [28] = test system: Klebsiella pneumoniae; experiment: Potentiation of colistin-induced antimicrobial activity against colistin-resistant Klebsiella pneumoniae B9 assessed as colistin MIC at 60 uM incubated for overnight duration by CLSI based method (reference value: 512 ug/ml); format: functional
# [29] = test system: Acinetobacter baumannii; experiment: Potentiation of colistin-induced antimicrobial activity against Acinetobacter baumannii SM1536 expressing mcr1 gene assessed as colistin MIC at 60 uM incubated for overnight duration by CLSI based method (reference value: 64 ug/ml); format: functional
# [30] = test system: Acinetobacter baumannii; experiment: Potentiation of colistin-induced antimicrobial activity against colistin-resistant Acinetobacter baumannii PM4119 assessed as colistin MIC at 60 uM incubated for overnight duration by CLSI based method (reference value: 1024 ug/ml); format: functional
# [31] = test system: Klebsiella pneumoniae; experiment: Potentiation of colistin-induced antimicrobial activity against colistin-resistant Klebsiella pneumoniae C5 assessed as colistin MIC at 30 uM incubated for overnight duration by CLSI based method (reference value: 128 ug/ml); format: functional
# [32] = test system: Acinetobacter baumannii; experiment: Potentiation of colistin-induced antimicrobial activity against colistin-resistant Acinetobacter baumannii PM3941 assessed as colistin MIC at 15 uM incubated for overnight duration by CLSI based method (reference value: 512 ug/ml); format: functional
# [33] = test system: Klebsiella pneumoniae; experiment: Potentiation of colistin-induced antimicrobial activity against colistin-resistant Klebsiella pneumoniae B9 assessed as colistin MIC at 30 uM incubated for overnight duration by CLSI based method (reference value: 512 ug/ml); format: functional
smiles,measurement,setting,value
CCCCCCc1ccc(-c2cn(CC)c(N)n2)cc1,MIC,[1],100 µM
same,fold change (FC),[2],>2048
same,MIC,[3],0.031 µg/mL
same,MIC,[4],> 200 µM
same,MIC,[5],4 µg/mL
same,fold change (FC),[6],2
same,MIC,[7],> 200 µM
same,MIC,[8],50 µM
same,fold change (FC),[9],2048
same,MIC,[10],> 200 µM
same,MIC,[11],0.0078 µg/mL
CCCCCCc1ccc(-c2cn(C(C)C)c(N)n2)cc1,Activity,[12],Active
same,MIC,[1],> 200 µM
same,fold change (FC),[2],256
same,MIC,[3],0.031 µg/mL
same,MIC,[4],> 200 µM
same,MIC,[5],4 µg/mL
same,fold change (FC),[6],0
same,MIC,[7],> 200 µM
same,MIC,[8],> 200 µM
same,fold change (FC),[9],256
same,MIC,[10],> 200 µM
same,MIC,[11],0.016 µg/mL
CCCCCc1ccc(C(=O)NCCn2cc(CCCCCc3cnc(N)n3Cc3ccc(CCCC)cc3)nn2)cc1,fold change (FC),[13],4
same,MIC,[14],< 0.002 µg/mL
same,fold change (FC),[15],128
same,fold change (FC),[2],>2048
same,MIC,[16],0.031 µg/mL
same,MIC,[17],8 µg/mL
same,MIC,[3],0.016 µg/mL
same,MIC,[18],8 µg/mL
same,MIC,[19],32 µg/mL
same,MIC,[5],2 µg/mL
same,fold change (FC),[6],16
same,fold change (FC),[20],16
same,fold change (FC),[21],256
same,MIC,[22],0.25 µg/mL
same,MIC,[23],8 µg/mL
same,MIC,[24],4 µg/mL
same,MIC,[25],16 µg/mL
same,MIC,[26],4 µg/mL
same,MIC,[27],64 µg/mL
same,MIC,[28],4 µg/mL
same,MIC,[29],1 µg/mL
same,MIC,[30],2 µg/mL
same,fold change (FC),[9],>2048
same,MIC,[31],4 µg/mL
same,MIC,[32],32 µg/mL
same,MIC,[11],< 0.00098 µg/mL
same,MIC,[33],8 µg/mL
